Several values for one entry are separate records, joined by “and”; a condition that tells them apart may be missing. Equal values may be shown once. Inconclusive results and toxic doses are left out. How the source made its calls: active means survival T/C of 150% or more; inactive means T/C below 125% in these data.
Test system: CD2F1 mice, L1210 leukemia ip, survival T/C
Assay: NCI In Vivo Anticancer Drug Screen. Data for tumor model L1210 Leukemia (intraperitoneal) in CD2F1 (CDF1) mice
Conditions: higher = longer survival
How it was run: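 Transplantable tumor in mice; compound-treated vs vehicle-treated groups. Read-out = treated/control ratio of the measured endpoint.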

[1] = endpoint: mean survival time, dose: 100.0 mg/kg/injection, schedule: Q01DX009 (ip), vehicle: saline with Tween-80
[2] = endpoint: mean survival time, dose: 100.0 mg/kg/injection, schedule: Q04DX003 (ip), vehicle: saline with Tween-80
[3] = endpoint: mean survival time, dose: 200.0 mg/kg/injection, schedule: Q01DX009 (ip), vehicle: saline with Tween-80
[4] = endpoint: mean survival time, dose: 200.0 mg/kg/injection, schedule: Q04DX003 (ip), vehicle: saline with Tween-80
[5] = endpoint: mean survival time, dose: 400.0 mg/kg/injection, schedule: Q01DX009 (ip), vehicle: saline with Tween-80
[6] = endpoint: mean survival time, dose: 400.0 mg/kg/injection, schedule: Q04DX003 (ip), vehicle: saline with Tween-80
[7] = endpoint: mean survival time, dose: 100.0 mg/kg/injection, schedule: Q01DX001 (ip), vehicle: Klucel (hydroxypropylcellulose) (HPC)
[8] = endpoint: mean survival time, dose: 200.0 mg/kg/injection, schedule: Q01DX001 (ip), vehicle: Klucel (hydroxypropylcellulose) (HPC)
[9] = endpoint: mean survival time, dose: 400.0 mg/kg/injection, schedule: Q01DX001 (ip), vehicle: Klucel (hydroxypropylcellulose) (HPC)
[10] = endpoint: mean survival time, dose: 100.0 mg/kg/injection, schedule: Q01DX001 (ip), vehicle: saline
[11] = endpoint: mean survival time, dose: 200.0 mg/kg/injection, schedule: Q01DX001 (ip), vehicle: saline
[12] = endpoint: mean survival time, dose: 400.0 mg/kg/injection, schedule: Q01DX001 (ip), vehicle: saline
[13] = endpoint: mean survival time, dose: 100.0 mg/kg/injection, schedule: Q01DX001 (ip), vehicle: saline with Tween-80
[14] = endpoint: mean survival time, dose: 200.0 mg/kg/injection, schedule: Q01DX001 (ip), vehicle: saline with Tween-80
[15] = endpoint: mean survival time, dose: 400.0 mg/kg/injection, schedule: Q01DX001 (ip), vehicle: saline with Tween-80

Measured: T/C

CCC1(O)C(=O)OCc2c1cc1n(c2=O)Cc2cc3ccc(CN)cc3nc2-1 (stereo not drawn)
inactive: endpoint: median survival time, dose: 10.0 mg/kg/injection, schedule: Q04DX002 (ip), vehicle: saline with Tween-80 109 % of control | endpoint: median survival time, dose: 10.0 mg/kg/injection, schedule: Q04DX002 (ip), vehicle: water 102 % of control | endpoint: median survival time, dose: 20.0 mg/kg/injection, schedule: Q04DX002 (ip), vehicle: saline with Tween-80 109 % of control | endpoint: median survival time, dose: 20.0 mg/kg/injection, schedule: Q04DX002 (ip), vehicle: water 102 % of control | endpoint: median survival time, dose: 40.0 mg/kg/injection, schedule: Q04DX002 (ip), vehicle: saline with Tween-80 106 % of control | endpoint: median survival time, dose: 40.0 mg/kg/injection, schedule: Q04DX002 (ip), vehicle: water 107 % of control | endpoint: median survival time, dose: 80.0 mg/kg/injection, schedule: Q04DX002 (ip), vehicle: saline with Tween-80 113 % of control | endpoint: median survival time, dose: 80.0 mg/kg/injection, schedule: Q04DX002 (ip), vehicle: water 108 % of control

CCOC(=O)C(OCC)P(=O)(OCC)OCC (stereo not drawn)
inactive: endpoint: mean survival time, dose: 25.0 mg/kg/injection, schedule: Q01DX005 (ip), vehicle: water 101 % of control | endpoint: mean survival time, dose: 50.0 mg/kg/injection, schedule: Q01DX005 (ip), vehicle: water 101 % of control | endpoint: mean survival time, dose: 100.0 mg/kg/injection, schedule: Q01DX005 (ip), vehicle: water 101 % of control | endpoint: mean survival time, dose: 200.0 mg/kg/injection, schedule: Q01DX005 (ip), vehicle: water 101 % of control | endpoint: mean survival time, dose: 400.0 mg/kg/injection, schedule: Q01DX005 (ip), vehicle: water 97 % of control

CCOC(=O)c1ccc(NC(=O)NC)cc1
inactive: [1] 93 % of control | [2] 92 % of control | [3] 93 % of control | [4] 93 % of control | [5] 93 % of control | [6] 101 % of control

O=C(N/N=C/c1ccc2c(c1)CCC2)c1ccccc1[N+](=O)[O-]
inactive: [7] 95 % of control | [8] 94 % of control | [4] 89 % of control | [9] 97 % of control | [6] 96 % of control

CC(=O)OC1COC(n2cnc3c(=S)nc[nH]c32)C(OC(C)=O)C1OC(C)=O (stereo not drawn)
inactive: [10] 97 % of control | [11] 102 % of control | [12] 100 % of control

O=C(Nc1cc2ccccc2o1)O/N=C/c1ccccn1
inactive: [2] 92 % of control | [4] 92 % of control | [6] 86 % of control

Nc1ccc(CCCCc2ccc(Cl)cc2Cl)cc1
inactive: [2] 104 % of control | [4] 110 % of control

N#Cc1cccc(CN2CCCNCC2)c1
inactive: endpoint: mean survival time, dose: 12.5 mg/kg/injection, schedule: Q01DX009 (ip), vehicle: water 98 % of control | endpoint: mean survival time, dose: 25.0 mg/kg/injection, schedule: Q01DX009 (ip), vehicle: water 100 % of control | endpoint: mean survival time, dose: 50.0 mg/kg/injection, schedule: Q01DX009 (ip), vehicle: water 96 % of control | endpoint: mean survival time, dose: 100.0 mg/kg/injection, schedule: Q01DX009 (ip), vehicle: water 105 % of control

CCC12C[N+]3([O-])CCc4c([nH]c5ccccc45)C(C(=O)OC)(c4cc5c(cc4OC)N(C)C4C(O)(C(=O)OC)C(OC(C)=O)C6(CC)C=CCN7CCC54C76)CC(C3)C1O2 (stereo not drawn)
inactive: endpoint: median survival time, dose: 0.62 mg/kg/injection, schedule: Q01DX009 (ip), vehicle: water 98 % of control | endpoint: median survival time, dose: 1.25 mg/kg/injection, schedule: Q01DX009 (ip), vehicle: water 103 % of control | endpoint: median survival time, dose: 2.5 mg/kg/injection, schedule: Q01DX009 (ip), vehicle: water 98 % of control and 105 % of control and 107 % of control | endpoint: median survival time, dose: 5.0 mg/kg/injection, schedule: Q01DX009 (ip), vehicle: water 101 % of control and 105 % of control and 110 % of control | endpoint: median survival time, dose: 10.0 mg/kg/injection, schedule: Q01DX009 (ip), vehicle: water 115 % of control and 117 % of control | endpoint: median survival time, dose: 20.0 mg/kg/injection, schedule: Q01DX009 (ip), vehicle: water 117 % of control and 119 % of control and 112 % of control

c1ccc2c(NC3=NCCO3)c3ccccc3nc2c1
inactive: endpoint: mean survival time, dose: 12.5 mg/kg/injection, schedule: Q04DX003 (ip), vehicle: saline with Tween-80 93 % of control | endpoint: mean survival time, dose: 25.0 mg/kg/injection, schedule: Q04DX003 (ip), vehicle: saline with Tween-80 96 % of control

CCCC[PH+](CCCC)CCCC.CCCC[PH+](CCCC)CCCC.O=[N+]([O-])O.O=[N+]([O-])O.[Ni]
inactive: endpoint: mean survival time, dose: 50.0 mg/kg/injection, schedule: Q04DX002 (ip), vehicle: saline with Tween-80 92 % of control

Cc1cc([N+](=O)[O-])c(Cl)cc1NS(=O)(=O)c1ccccc1
inactive: endpoint: mean survival time, dose: 50.0 mg/kg/injection, schedule: Q01DX009 (ip), vehicle: saline with Tween-80 103 % of control | [1] 101 % of control | [3] 94 % of control

Nc1ccc(Br)cc1
inactive: [2] 97 % of control | [4] 100 % of control | [6] 87 % of control

CC1CC(C)(C)N=C(C2CCCC2)O1 (stereo not drawn)
inactive: [13] 96 % of control | [14] 96 % of control | [15] 100 % of control

CC(=O)OC1CCC2(C)C(=CCC3C2CCC2(C)C(C(C)CCC(=O)O)CCC32)C1 (stereo not drawn)
inactive: [1] 95 % of control | [3] 95 % of control | [5] 96 % of control

CCC(C)C(C(=O)O)c1ccccc1 (stereo not drawn)
inactive: [1] 104 % of control | [3] 101 % of control | [5] 98 % of control

O=C(SSCCSSCCSSC(=O)N1CCOCC1)N1CCOCC1
inactive: [7] 93 % of control | [8] 100 % of control | [9] 93 % of control

CC1C2OC2C(C)S1(=O)=O (stereo not drawn)
inactive: [13] 100 % of control | endpoint: mean survival time, dose: 100.0 mg/kg/injection, schedule: Q04DX002 (ip), vehicle: saline with Tween-80 93 % of control | [14] 101 % of control | endpoint: mean survival time, dose: 200.0 mg/kg/injection, schedule: Q04DX002 (ip), vehicle: saline with Tween-80 101 % of control | [15] 101 % of control | endpoint: mean survival time, dose: 400.0 mg/kg/injection, schedule: Q04DX002 (ip), vehicle: saline with Tween-80 89 % of control

CC1(C)N=C(N)N=C(N)N1c1ccc(OCCCCNC(=O)c2cccc(S(=O)(=O)F)c2)c(Cl)c1
inactive: endpoint: mean survival time, dose: 5.0 mg/kg/injection, schedule: Q01DX001 (ip), vehicle: saline with Tween-80 105 % of control | endpoint: mean survival time, dose: 5.0 mg/kg/injection, schedule: Q01DX009 (ip), vehicle: saline 102 % of control | endpoint: mean survival time, dose: 10.0 mg/kg/injection, schedule: Q01DX001 (ip), vehicle: saline with Tween-80 95 % of control | endpoint: mean survival time, dose: 10.0 mg/kg/injection, schedule: Q01DX009 (ip), vehicle: saline 98 % of control | endpoint: mean survival time, dose: 20.0 mg/kg/injection, schedule: Q01DX001 (ip), vehicle: saline with Tween-80 94 % of control | endpoint: mean survival time, dose: 20.0 mg/kg/injection, schedule: Q01DX009 (ip), vehicle: saline 98 % of control

Cc1cn(C2CC(O)C(COC(c3ccccc3)(c3ccccc3)c3ccc(OCC(=O)O)cc3)O2)c(=O)[nH]c1=O (stereo not drawn)
inactive: endpoint: mean survival time, dose: 12.5 mg/kg/injection, schedule: Q01DX005 (ip), vehicle: distilled water + Tween-80 100 % of control | endpoint: mean survival time, dose: 25.0 mg/kg/injection, schedule: Q01DX005 (ip), vehicle: distilled water + Tween-80 97 % of control | endpoint: mean survival time, dose: 50.0 mg/kg/injection, schedule: Q01DX005 (ip), vehicle: distilled water + Tween-80 96 % of control | endpoint: mean survival time, dose: 100.0 mg/kg/injection, schedule: Q01DX005 (ip), vehicle: distilled water + Tween-80 102 % of control | endpoint: mean survival time, dose: 200.0 mg/kg/injection, schedule: Q01DX005 (ip), vehicle: distilled water + Tween-80 94 % of control

O=C(CC(=O)OCc1ccc([N+](=O)[O-])cc1)OCc1ccc([N+](=O)[O-])cc1
inactive: [8] 96 % of control | [9] 93 % of control

Cc1nc(C(=O)O)c(C(=O)O)[nH]1
inactive: [1] 98 % of control | [2] 100 % of control | [3] 97 % of control | [4] 94 % of control

[Cl][Pt+2][Cl].[NH-]Cc1cccc(F)c1.[NH-]Cc1cccc(F)c1
inactive: endpoint: mean survival time, dose: 12.5 mg/kg/injection, schedule: Q04DX003 (ip), vehicle: distilled water + Tween-80 95 % of control | endpoint: mean survival time, dose: 25.0 mg/kg/injection, schedule: Q04DX003 (ip), vehicle: distilled water + Tween-80 95 % of control | endpoint: mean survival time, dose: 50.0 mg/kg/injection, schedule: Q04DX003 (ip), vehicle: distilled water + Tween-80 95 % of control | endpoint: mean survival time, dose: 100.0 mg/kg/injection, schedule: Q04DX003 (ip), vehicle: distilled water + Tween-80 100 % of control | endpoint: mean survival time, dose: 200.0 mg/kg/injection, schedule: Q04DX003 (ip), vehicle: distilled water + Tween-80 100 % of control

N#CC(C#N)=c1ccc(=C(C#N)C#N)cc1
inactive: [2] 98 % of control

CCOC(=O)C1CNC(=O)C1=O (stereo not drawn)
inactive: [10] 106 % of control | [2] 100 % of control | [11] 110 % of control | [4] 101 % of control | [12] 106 % of control | [6] 95 % of control
